Data set [1] in a line: water solubility of the isolated product. The class given is physicochemical. As to conditions: isolated white powder.
A short description of data set [2]: pH of the isolated product. The class given is physicochemical. The settings on record: isolated white powder.

Each structure is given as a SMILES string.

As to `C=CC1CCN(Sc2cc3c(N(C)c4ccc(CC)cc4)ncnc3c(C)c2OCCC)CC1` [Compound V-1], the water solubility entry in data set [1] is “water-soluble”. For the same compound, the pH in data set [2] was 6.4.
The matching figures for `C=CC1CCN(C(=O)Oc2cc3c(N(C)c4ccc(CC)cc4)ncnc3c(C)c2OCC)CC1` [II-1]: “water-soluble” and 6.4.
On the same counts, the results for `C#CC1CCN(Nc2c(OC)cc3ncnc(N(C)c4ccc(C)cc4)c3c2CC)CC1` [III-1] are “water-soluble” and 6.4.

The record behind these values is patent US7825245B2, “Substituted 4-anilinoquinazolines and their use in tumor treatment” (priority 2005, dated 2010).
